Patent publication US10092620B2, “Uses of cyclic peptides for treating and preventing atherosclerosis” (THE SCRIPPS RESEARCH INSTITUTE, priority 2013, dated 2018)
Non-standard residues stand in square brackets, D forms with d. 1Nal = N[C@@H](Cc1cccc2ccccc12)C(=O)O; 2Nal = N[C@@H](Cc1ccc2ccccc2c1)C(=O)O; Aoc(2) = CCCCCC[C@H](N)C(=O)O; dOrn = NCCC[C@@H](N)C(=O)O; Dap = NC[C@H](N)C(=O)O

Tested on: HDL in human plasma
Test: pre-beta HDL ELISA assay: remodeling HDL in human plasma in vitro
Type: biochemical
Details: for Pre-beta HDL generated (normalized level): pre-beta HDL ELISA
Procedure: First, various cyclic peptides, including the majority of compounds shown in FIG. 2, were assessed for activities for remodeling HDL in human plasma in vitro. Unlike western blot which was used to generate data shown in FIG. 2, here a pre-beta HDL ELISA assay was used to measure pre-beta HDL levels. Results from the assay are shown in Table 1, which lists the peptides in the order of their activities in remodeling HDL.

| Substance | Pre-beta HDL generated (normalized level) | activity in generating pre-beta HDL (in words) |
| --- | --- | --- |
| 59 (cyclo([dW]Y[dW]Y[dS]R[dS][dS]); SMILES N=C(N)NCCC[C@@H]1NC(=O)[C@@H](CO)NC(=O)[C@H](Cc2ccc(O)cc2)NC(=O)[C@@H](Cc2c[nH]c3ccccc23)NC(=O)[C@H](Cc2ccc(O)cc2)NC(=O)[C@@H](Cc2c[nH]c3ccccc23)NC(=O)[C@@H](CO)NC(=O)[C@@H](CO)NC1=O) [compound 59] | 0.24 |  |
| 60 (cyclo([dW][2Nal][dK]S[dK]S[dK]S); ring closure inferred) [compound 60] | 0.20 |  |
| 61 (cyclo([dY]A[dY]L[dK]H[dK]K); SMILES CC(C)C[C@@H]1NC(=O)[C@@H](Cc2ccc(O)cc2)NC(=O)[C@H](C)NC(=O)[C@@H](Cc2ccc(O)cc2)NC(=O)[C@H](CCCCN)NC(=O)[C@@H](CCCCN)NC(=O)[C@H](Cc2c[nH]cn2)NC(=O)[C@@H](CCCCN)NC1=O) [compound 61] | 0.19 |  |
| 62 (cyclo([dY]Y[dV]Y[dH]H); SMILES CC(C)[C@H]1NC(=O)[C@H](Cc2ccc(O)cc2)NC(=O)[C@@H](Cc2ccc(O)cc2)NC(=O)[C@H](Cc2c[nH]cn2)NC(=O)[C@@H](Cc2c[nH]cn2)NC(=O)[C@H](Cc2ccc(O)cc2)NC1=O) [compound 62] | 0.17 |  |
| 64 (cyclo([dW]F[dW]Y[dR]S[dS]H); SMILES N=C(N)NCCC[C@H]1NC(=O)[C@H](Cc2ccc(O)cc2)NC(=O)[C@@H](Cc2c[nH]c3ccccc23)NC(=O)[C@H](Cc2ccccc2)NC(=O)[C@@H](Cc2c[nH]c3ccccc23)NC(=O)[C@H](Cc2c[nH]cn2)NC(=O)[C@@H](CO)NC(=O)[C@H](CO)NC1=O) [compound 64] | 0.16 |  |
| 65 (cyclo([dY]G[dW]W[dN]N[dK]N); SMILES NCCCC[C@H]1NC(=O)[C@H](CC(N)=O)NC(=O)[C@@H](CC(N)=O)NC(=O)[C@H](Cc2c[nH]c3ccccc23)NC(=O)[C@@H](Cc2c[nH]c3ccccc23)NC(=O)CNC(=O)[C@@H](Cc2ccc(O)cc2)NC(=O)[C@H](CC(N)=O)NC1=O) [compound 65] | 0.11 |  |
| 66 (cyclo([dW][benzyltyrosine][dK]N[dN]K[dK]K); ring closure inferred) [compound 66] | 0.10 |  |
| 67 (cyclo([dW][homoleucine][dW]R[dE]Q[dE]R); ring closure inferred) [compound 67] | 0.08 |  |
| 68 (cyclo([dW]W[dF]Y[dK]H[dS]S); SMILES NCCCC[C@H]1NC(=O)[C@H](Cc2ccc(O)cc2)NC(=O)[C@@H](Cc2ccccc2)NC(=O)[C@H](Cc2c[nH]c3ccccc23)NC(=O)[C@@H](Cc2c[nH]c3ccccc23)NC(=O)[C@H](CO)NC(=O)[C@@H](CO)NC(=O)[C@H](Cc2c[nH]cn2)NC1=O) [compound 68] | 0.07 |  |
| 69 (cyclo([dL]W[dL]H[dE]K[dK]H); SMILES CC(C)C[C@H]1NC(=O)[C@H](Cc2c[nH]cn2)NC(=O)[C@@H](CCCCN)NC(=O)[C@H](CCCCN)NC(=O)[C@@H](CCC(=O)O)NC(=O)[C@H](Cc2c[nH]cn2)NC(=O)[C@@H](CC(C)C)NC(=O)[C@H](Cc2c[nH]c3ccccc23)NC1=O) [compound 69] | 0.07 |  |
| 70 (cyclo(L[dL]W[dL]K[dK]K[dK]); SMILES CC(C)C[C@@H]1NC(=O)[C@@H](CCCCN)NC(=O)[C@H](CCCCN)NC(=O)[C@@H](CCCCN)NC(=O)[C@H](CCCCN)NC(=O)[C@@H](CC(C)C)NC(=O)[C@H](Cc2c[nH]c3ccccc23)NC(=O)[C@@H](CC(C)C)NC1=O) [compound 70] | 0.06 |  |
| 71 (cyclo(WGWGW[dK]S[dOrn]); ring closure inferred) [compound 71] | 0.06 |  |
| 72 (cyclo([dL]W[dK]H[dS]H[dK]K); SMILES CC(C)C[C@H]1NC(=O)[C@H](CCCCN)NC(=O)[C@@H](CCCCN)NC(=O)[C@H](Cc2c[nH]cn2)NC(=O)[C@@H](CO)NC(=O)[C@H](Cc2c[nH]cn2)NC(=O)[C@@H](CCCCN)NC(=O)[C@H](Cc2c[nH]c3ccccc23)NC1=O) [compound 72] | 0.04 |  |
| 73 (cyclo(L[dW]L[dH]K[dK]E[dH]); SMILES CC(C)C[C@@H]1NC(=O)[C@@H](Cc2c[nH]c3ccccc23)NC(=O)[C@H](CC(C)C)NC(=O)[C@@H](Cc2c[nH]cn2)NC(=O)[C@H](CCC(=O)O)NC(=O)[C@@H](CCCCN)NC(=O)[C@H](CCCCN)NC(=O)[C@@H](Cc2c[nH]cn2)NC1=O) [compound 73] | 0.04 |  |
| 74 (cyclo([dF]F[dY]F[dK]K); SMILES NCCCC[C@@H]1NC(=O)[C@@H](CCCCN)NC(=O)[C@H](Cc2ccccc2)NC(=O)[C@@H](Cc2ccc(O)cc2)NC(=O)[C@H](Cc2ccccc2)NC(=O)[C@@H](Cc2ccccc2)NC1=O) [compound 74] | 0.04 |  |
| 75 (cyclo([dW]L[dW][Dap][dE]Q[dE]K); ring closure inferred) [compound 75] | 0.03 |  |
| 76 (cyclo([dL]W[dL]K[dK]K[dH]R); SMILES CC(C)C[C@H]1NC(=O)[C@H](CCCNC(=N)N)NC(=O)[C@@H](Cc2c[nH]cn2)NC(=O)[C@H](CCCCN)NC(=O)[C@@H](CCCCN)NC(=O)[C@H](CCCCN)NC(=O)[C@@H](CC(C)C)NC(=O)[C@H](Cc2c[nH]c3ccccc23)NC1=O) [compound 76] | 0.03 |  |
| 77 (cyclo(W[dF]E[dL]Y[dS]H[dOrn]); ring closure inferred) [compound 77] | 0.02 |  |
| 78 (cyclo([dY]L[dW]K[dK]K); SMILES CC(C)C[C@@H]1NC(=O)[C@@H](Cc2ccc(O)cc2)NC(=O)[C@H](CCCCN)NC(=O)[C@@H](CCCCN)NC(=O)[C@H](CCCCN)NC(=O)[C@@H](Cc2c[nH]c3ccccc23)NC1=O) [compound 78] | 0.01 |  |
| 79 (cyclo([dW]L[dK]S[dK]S[dK]S); SMILES CC(C)C[C@@H]1NC(=O)[C@@H](Cc2c[nH]c3ccccc23)NC(=O)[C@H](CO)NC(=O)[C@@H](CCCCN)NC(=O)[C@H](CO)NC(=O)[C@@H](CCCCN)NC(=O)[C@H](CO)NC(=O)[C@@H](CCCCN)NC1=O) [compound 79] | 0.01 |  |
| 80 (cyclo([dW]L[dW]R[dD]Q[dE]K); SMILES CC(C)C[C@@H]1NC(=O)[C@@H](Cc2c[nH]c3ccccc23)NC(=O)[C@H](CCCCN)NC(=O)[C@@H](CCC(=O)O)NC(=O)[C@H](CCC(N)=O)NC(=O)[C@@H](CC(=O)O)NC(=O)[C@H](CCCNC(=N)N)NC(=O)[C@@H](Cc2c[nH]c3ccccc23)NC1=O) [compound 80] | 0.01 |  |
| c[WIWrEqEr] (cyclo(WIW[dR]E[dQ]E[dR]); SMILES CC[C@H](C)[C@@H]1NC(=O)[C@H](Cc2c[nH]c3ccccc23)NC(=O)[C@@H](CCCNC(=N)N)NC(=O)[C@H](CCC(=O)O)NC(=O)[C@@H](CCC(N)=O)NC(=O)[C@H](CCC(=O)O)NC(=O)[C@@H](CCCNC(=N)N)NC(=O)[C@H](Cc2c[nH]c3ccccc23)NC1=O) [SEQ ID NO:50] |  | excellent activities in generating plasma pre-beta HDL |
| c[WlWwkhkh] (cyclo(WIW[dW][dK][dH][dK][dH])) [SEQ ID NO:47] |  | excellent activities in generating plasma pre-beta HDL |
| c[fWwYqHhQ] (cyclo([dF]W[dW]Y[dQ]H[dH]Q); SMILES NC(=O)CC[C@@H]1NC(=O)[C@@H](Cc2c[nH]cn2)NC(=O)[C@H](Cc2c[nH]cn2)NC(=O)[C@@H](CCC(N)=O)NC(=O)[C@H](Cc2ccc(O)cc2)NC(=O)[C@@H](Cc2c[nH]c3ccccc23)NC(=O)[C@H](Cc2c[nH]c3ccccc23)NC(=O)[C@@H](Cc2ccccc2)NC1=O) [SEQ ID NO:5] |  | excellent activities in promoting generation of pre-beta HDL |
| c[fWwYtRhS] (cyclo([dF]W[dW]Y[dT]R[dH]S); SMILES C[C@H](O)[C@H]1NC(=O)[C@H](Cc2ccc(O)cc2)NC(=O)[C@@H](Cc2c[nH]c3ccccc23)NC(=O)[C@H](Cc2c[nH]c3ccccc23)NC(=O)[C@@H](Cc2ccccc2)NC(=O)[C@H](CO)NC(=O)[C@@H](Cc2c[nH]cn2)NC(=O)[C@H](CCCNC(=N)N)NC1=O) [SEQ ID NO:51] |  | excellent activities in promoting generation of pre-beta HDL |
| c[wLwKeNeK] (cyclo([dW]L[dW]K[dE]N[dE]K); SMILES CC(C)C[C@@H]1NC(=O)[C@@H](Cc2c[nH]c3ccccc23)NC(=O)[C@H](CCCCN)NC(=O)[C@@H](CCC(=O)O)NC(=O)[C@H](CC(N)=O)NC(=O)[C@@H](CCC(=O)O)NC(=O)[C@H](CCCCN)NC(=O)[C@@H](Cc2c[nH]c3ccccc23)NC1=O) [SEQ ID NO:11] | 0.24 |  |
| w(Aoc)wReQeR (cyclo([dW][Aoc(2)][dW]R[dE]Q[dE]R); ring closure inferred) [SEQ ID NO:31] | 0.04 |  |
| w(Nal)wReQeR (cyclo([dW][1Nal][dW]R[dE]Q[dE]R); ring closure inferred) [SEQ ID NO:28] | 0.35 |  |
